The supplement of paper PMC11208160

Test: recombinant barcode read abundance after kanamycin selection (control-corrected) (log10(CPM+1)); higher = more efficient recombination; sequences stand for … in AGTGCAGAGAAAATCGGCCAGTTTTCTCTGCCTGCAGTCCGCATGCCGT…AGATTTATGCAGCGGACTGCCTTTCTCCCAAAGTGATAAACCGGACAGTATCATGGACCGGTTTTCCCGGTAATCCGTATTTGCAAGGTTGGTTTCACT; site = the 11-nt target
Protocol: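 Pooled E. coli target-specificity screen for the IS621 bridge recombinase. Each library plasmid pairs an 11-nt target (CT core) with a bridge RNA whose target-binding loop (9-nt LTG + 4-nt RTG) is reprogrammed; the rest of the 177-nt WT IS621 bridge RNA scaffold is fixed. The plasmid is co-electroporated with a WT donor plasmid; recombinase is induced with 0.1 mM IPTG and recombinants are selected on kanamycin. Recombinant barcodes are sequenced, converted to CPM, averaged over two biological replicates and corrected by the unselected control CPM. Molecule = full bridge RNA written as DNA: LTG = specificity nt 1-9, RTG = reverse complement of specificity nt 8-11, in the WT scaffold.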
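Note: IS621 recombinase and bridge RNA in Escherichia coli cells.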

Sequence	recombinant barcode read abundance (log10)
ACAGTTACTTGGGTTCTAACCTGTTGCAT (site TTGTGAGCTTG)	0.737
ACATACCCTTGGGTTCTAACCTGTTGCTG (site ACATACCCTCA)	1.81
ACATACCCTTGGGTTCTAACCTGTTGCTG (site CTTCGAACTAT)	0.142
ACATGGACTTGGGTTCTAACCTGTTGCAT (site ACATGAACTAT)	0.753
ACATGGACTTGGGTTCTAACCTGTTGCAT (site ACATGCACTAT)	0.115
ACATGGACTTGGGTTCTAACCTGTTGCAT (site ACATGGACTAT)	2.72
ACATGGACTTGGGTTCTAACCTGTTGCAT (site ACATGTACTAT)	0.157
ACATGTACTTGGGTTCTAACCTGTTGCAG (site ACATGTACTCT)	1.28
ACATGTACTTGGGTTCTAACCTGTTGCAG (site AGATGTACTCA)	0.0852
ACATGTACTTGGGTTCTAACCTGTTGCAT (site ACATGAACTAT)	0.0356
ACATGTACTTGGGTTCTAACCTGTTGCAT (site ACATGCACTAT)	0
ACATGTACTTGGGTTCTAACCTGTTGCAT (site ACATGGACTAT)	0.121
ACATGTACTTGGGTTCTAACCTGTTGCAT (site ACATGTACTAT)	0.888
ACATGTACTTGGGTTCTAACCTGTTGCCG (site ACATGTACTCA)	0.0415
ACATGTACTTGGGTTCTAACCTGTTGCCG (site ACATGTACTCG)	0.158
ACATGTACTTGGGTTCTAACCTGTTGCTG (site ACATGTACTCA)	1.1
ACATGTACTTGGGTTCTAACCTGTTGCTG (site ACATGTACTCG)	0.182
ACATTGCCTTGGGTTCTAACCTGTTGCCT (site ACATTGCCTAG)	0.44
ACATTGCCTTGGGTTCTAACCTGTTGCCT (site ACCTTGCCTAG)	0.0938
ACATTGCCTTGGGTTCTAACCTGTTGCCT (site ACGTTGCCTAG)	0.732
ACATTGCCTTGGGTTCTAACCTGTTGCCT (site ACTTTGCCTAG)	0

Sequence	recombinant barcode read abundance (log10)
ACCAAGTCTTGGGTTCTAACCTGTTGCGC (site ACCAAGTCTAC)	0.251
ACCAAGTCTTGGGTTCTAACCTGTTGCGC (site ACCAAGTCTGC)	1.74
ACCACAGCTTGGGTTCTAACCTGTTGCCT (site ACCAAAGCTTG)	0.16
ACCACAGCTTGGGTTCTAACCTGTTGCCT (site ACCACAGCTAG)	0.283
ACCAGATCTTGGGTTCTAACCTGTTGCCT (site ACCAGATCTAG)	0.846
ACCAGATCTTGGGTTCTAACCTGTTGCCT (site TCCAGCTCTAG)	0.152
ACCCAGCCTTGGGTTCTAACCTGTTGCAG (site ACCCAGCCTCT)	2.27
ACCCAGCCTTGGGTTCTAACCTGTTGCAG (site TGAGTCTCTTG)	0.0203
ACCCAGCCTTGGGTTCTAACCTGTTGCAT (site ACCCAGCCTAA)	1.4
ACCCAGCCTTGGGTTCTAACCTGTTGCAT (site ACCCAGCCTAC)	0.265
ACCCAGCCTTGGGTTCTAACCTGTTGCAT (site ACCCAGCCTAG)	0.68
ACCCAGCCTTGGGTTCTAACCTGTTGCAT (site ACCCAGCCTAT)	2.45
ACCCAGCCTTGGGTTCTAACCTGTTGCTT (site ACCCAGCCTAA)	1.77
ACCCAGCCTTGGGTTCTAACCTGTTGCTT (site ACCCAGCCTAC)	0.278
ACCCAGCCTTGGGTTCTAACCTGTTGCTT (site ACCCAGCCTAG)	0.758
ACCCAGCCTTGGGTTCTAACCTGTTGCTT (site ACCCAGCCTAT)	1.41
ACCCGTACTTGGGTTCTAACCTGTTGCCT (site ACCAGTACTAG)	0.063
ACCCGTACTTGGGTTCTAACCTGTTGCCT (site ACCCGTACTAG)	1.26
ACCCGTACTTGGGTTCTAACCTGTTGCCT (site ACCGGTACTAG)	0.0386
ACCCGTACTTGGGTTCTAACCTGTTGCCT (site ACCTGTACTAG)	0.485
ACCCGTCCTTGGGTTCTAACCTGTTGCAG (site ACCCGTCCTCT)	2.67

Sequence	recombinant barcode read abundance (log10)
ACCCGTCCTTGGGTTCTAACCTGTTGCAG (site GGCCGTCCTCT)	0.051
ACCCTAGCTTGGGTTCTAACCTGTTGCCA (site ACCCTAGCTTG)	1.52
ACCCTAGCTTGGGTTCTAACCTGTTGCCA (site ATCGTAGCTTG)	0.0661
ACCCTAGCTTGGGTTCTAACCTGTTGCTC (site AACCTAGCTTA)	0.191
ACCCTAGCTTGGGTTCTAACCTGTTGCTC (site ACCCTAGCTGA)	1.95
ACCCTATCTTGGGTTCTAACCTGTTGCTT (site ACCCTATCTAA)	0.944
ACCCTATCTTGGGTTCTAACCTGTTGCTT (site ACTCTGTCTAA)	0.114
ACCGACCCTTGGGTTCTAACCTGTTGCAT (site ACCGACCCTAT)	1.67
ACCGACCCTTGGGTTCTAACCTGTTGCAT (site TAGTTTGCTCG)	0.401
ACCGCGTCTTGGGTTCTAACCTGTTGCAT (site ACCGCGTCTAT)	0.521
ACCGCGTCTTGGGTTCTAACCTGTTGCAT (site TTGATAGCTTA)	0.0509
ACCGCTCCTTGGGTTCTAACCTGTTGCCT (site AACGCTCCTAG)	0.0208
ACCGCTCCTTGGGTTCTAACCTGTTGCCT (site ACCGCTCCTAG)	0.297
ACCGCTCCTTGGGTTCTAACCTGTTGCCT (site AGCGCTCCTAG)	0.0225
ACCGCTCCTTGGGTTCTAACCTGTTGCCT (site ATCGCTCCTAG)	0.0271
ACCTACCCTTGGGTTCTAACCTGTTGCCT (site ACATACACTAG)	0.136
ACCTACCCTTGGGTTCTAACCTGTTGCCT (site ACCTACCCTAG)	1.14
ACCTACGCTTGGGTTCTAACCTGTTGCCT (site ACCTACGCTAG)	1.01
ACCTACGCTTGGGTTCTAACCTGTTGCCT (site ACCTACTCTAG)	0.23
ACCTACTCTTGGGTTCTAACCTGTTGCTT (site ACCTACTCTAA)	1.33
ACCTACTCTTGGGTTCTAACCTGTTGCTT (site AGCTACCCTAA)	0.315

Sequence	recombinant barcode read abundance (log10)
ACCTCGGCTTGGGTTCTAACCTGTTGCTG (site ACCTCGGCTCA)	0.399
ACCTCGGCTTGGGTTCTAACCTGTTGCTG (site TGGCAATCTAG)	0.0759
ACCTTAGCTTGGGTTCTAACCTGTTGCTT (site ACCTTAGCTAA)	0.297
ACCTTAGCTTGGGTTCTAACCTGTTGCTT (site TAGGCGACTTG)	0.0735
ACCTTGTCTTGGGTTCTAACCTGTTGCTA (site ACCTTGTCTTA)	0.777
ACCTTGTCTTGGGTTCTAACCTGTTGCTA (site GCCATGTCTTA)	0.0578
ACGAAGGCTTGGGTTCTAACCTGTTGCCT (site ACGAAGGCTAG)	0.696
ACGAAGGCTTGGGTTCTAACCTGTTGCCT (site ACGAAGGCTCG)	0.0407
ACGAGCGCTTGGGTTCTAACCTGTTGCCT (site ACGAACGCTAG)	0.132
ACGAGCGCTTGGGTTCTAACCTGTTGCCT (site ACGACCGCTAG)	0.0589
ACGAGCGCTTGGGTTCTAACCTGTTGCCT (site ACGAGCGCTAG)	1.54
ACGAGCGCTTGGGTTCTAACCTGTTGCCT (site ACGATCGCTAG)	0.0598
ACGAGCTCTTGGGTTCTAACCTGTTGCTG (site ACGAGCTCTCA)	1.84
ACGAGCTCTTGGGTTCTAACCTGTTGCTG (site CCGCGCTCTCA)	0.0264
ACGAGTACTTGGGTTCTAACCTGTTGCTG (site ACGAGTACTCA)	1.02
ACGAGTACTTGGGTTCTAACCTGTTGCTG (site ACGAGTACTCC)	0.662
ACGAGTCCTTGGGTTCTAACCTGTTGCGT (site ACGAGTCCTAC)	2.6
ACGAGTCCTTGGGTTCTAACCTGTTGCGT (site ACGAGTCCTAG)	0.202
ACGCAATCTTGGGTTCTAACCTGTTGCCT (site ACGCAATCTAG)	0.0303
